Source: the kinase profiling compilation of Christmann-Franck et al. (2016)

Legend:
Assay in all cases: split-luciferase competition binding
[1] = biological target: PRKCD (human) (UniProt Q05655); details: compound 10.0 µM
[2] = biological target: RPS6KA6 KD1 (human) (UniProt Q9UK32); details: compound 10.0 µM
[3] = biological target: PKN1 (human) (UniProt Q16512); details: compound 10.0 µM
[4] = biological target: RPS6KA2 KD1 (human) (UniProt Q15349); details: compound 10.0 µM
[5] = biological target: AKT1 (human) (UniProt P31749); details: compound 10.0 µM
[6] = biological target: AURKA (human) (UniProt O14965); details: compound 10.0 µM
[7] = biological target: AKT3 (human) (UniProt Q9Y243); details: compound 10.0 µM
[8] = biological target: SGK2 (human) (UniProt Q9HBY8); details: compound 10.0 µM
[9] = biological target: AKT2 (human) (UniProt P31751); details: compound 10.0 µM
[10] = biological target: PDPK1 (human) (UniProt O15530); details: compound 10.0 µM
[11] = biological target: PRKCH (human) (UniProt P24723); details: compound 10.0 µM
[12] = biological target: RPS6KA4 KD1 (human) (UniProt O75676); details: compound 10.0 µM
[13] = biological target: STK32B (human) (UniProt Q9NY57); details: compound 10.0 µM
[14] = tested on: PRKACA (mouse); details: compound 10.0 µM; accession and sequence are those of the human protein
[15] = biological target: AURKC (human) (UniProt Q9UQB9); details: compound 10.0 µM
[16] = biological target: SGK3 (human) (UniProt Q96BR1); details: compound 10.0 µM
[17] = biological target: AURKB (human) (UniProt Q96GD4); details: compound 10.0 µM
[18] = biological target: RPS6KA5 KD1 (human) (UniProt O75582); details: compound 10.0 µM
[19] = biological target: PRKCG (human) (UniProt P05129); details: compound 10.0 µM
[20] = biological target: DMPK (human) (UniProt Q09013); details: compound 10.0 µM
[21] = biological target: RPS6KA1 KD1 (human) (UniProt Q15418); details: compound 10.0 µM
[22] = biological target: PRKCE (human) (UniProt Q02156); details: compound 10.0 µM
[23] = biological target: PRKCQ (human) (UniProt Q04759); details: compound 10.0 µM
[24] = biological target: PRKCI (human) (UniProt P41743); details: compound 10.0 µM
[25] = biological target: PRKX (human) (UniProt P51817); details: compound 10.0 µM
[26] = biological target: PRKACB (human) (UniProt P22694); details: compound 10.0 µM
[27] = biological target: RPS6KA3 KD1 (human) (UniProt P51812); details: compound 10.0 µM
Chain of RPS6KA3 KD1 (human) (P51812 whole entry, looked up): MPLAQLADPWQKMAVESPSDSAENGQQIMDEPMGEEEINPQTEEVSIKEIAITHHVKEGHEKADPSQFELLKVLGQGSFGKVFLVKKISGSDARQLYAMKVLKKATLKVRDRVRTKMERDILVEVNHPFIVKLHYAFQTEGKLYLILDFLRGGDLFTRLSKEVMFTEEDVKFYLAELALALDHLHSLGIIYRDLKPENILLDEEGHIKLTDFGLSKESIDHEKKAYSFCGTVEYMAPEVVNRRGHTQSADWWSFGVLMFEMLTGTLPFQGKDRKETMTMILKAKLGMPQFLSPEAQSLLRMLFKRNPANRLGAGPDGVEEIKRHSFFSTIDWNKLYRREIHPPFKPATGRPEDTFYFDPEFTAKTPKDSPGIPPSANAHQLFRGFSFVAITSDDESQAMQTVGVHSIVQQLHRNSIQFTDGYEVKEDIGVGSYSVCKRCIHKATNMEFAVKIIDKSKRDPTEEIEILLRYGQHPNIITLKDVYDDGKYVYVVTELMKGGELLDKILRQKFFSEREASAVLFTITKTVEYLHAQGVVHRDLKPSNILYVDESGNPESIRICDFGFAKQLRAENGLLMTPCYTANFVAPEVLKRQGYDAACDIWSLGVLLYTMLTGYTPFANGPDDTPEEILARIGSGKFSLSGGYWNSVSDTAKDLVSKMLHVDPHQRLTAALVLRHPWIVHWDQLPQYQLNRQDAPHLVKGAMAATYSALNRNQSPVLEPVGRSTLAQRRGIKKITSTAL

Chain of DMPK (human) (Q09013 whole entry, looked up): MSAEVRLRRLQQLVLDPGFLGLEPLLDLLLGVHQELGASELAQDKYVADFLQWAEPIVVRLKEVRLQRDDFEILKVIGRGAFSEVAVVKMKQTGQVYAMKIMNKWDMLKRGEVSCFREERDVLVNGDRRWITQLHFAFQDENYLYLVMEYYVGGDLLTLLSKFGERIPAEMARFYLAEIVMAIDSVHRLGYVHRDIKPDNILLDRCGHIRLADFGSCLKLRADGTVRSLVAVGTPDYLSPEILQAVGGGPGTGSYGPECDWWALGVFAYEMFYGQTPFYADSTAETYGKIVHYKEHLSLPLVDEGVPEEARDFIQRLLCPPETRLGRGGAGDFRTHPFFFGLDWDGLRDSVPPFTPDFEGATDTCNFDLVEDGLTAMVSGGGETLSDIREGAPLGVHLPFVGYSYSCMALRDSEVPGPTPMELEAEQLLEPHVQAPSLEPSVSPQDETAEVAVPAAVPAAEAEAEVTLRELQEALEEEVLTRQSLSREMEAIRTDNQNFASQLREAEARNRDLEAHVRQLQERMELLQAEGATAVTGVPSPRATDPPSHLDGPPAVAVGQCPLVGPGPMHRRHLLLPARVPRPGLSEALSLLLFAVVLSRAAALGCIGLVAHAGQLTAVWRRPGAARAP
Chain of PRKCH (human) (P24723 whole entry, looked up): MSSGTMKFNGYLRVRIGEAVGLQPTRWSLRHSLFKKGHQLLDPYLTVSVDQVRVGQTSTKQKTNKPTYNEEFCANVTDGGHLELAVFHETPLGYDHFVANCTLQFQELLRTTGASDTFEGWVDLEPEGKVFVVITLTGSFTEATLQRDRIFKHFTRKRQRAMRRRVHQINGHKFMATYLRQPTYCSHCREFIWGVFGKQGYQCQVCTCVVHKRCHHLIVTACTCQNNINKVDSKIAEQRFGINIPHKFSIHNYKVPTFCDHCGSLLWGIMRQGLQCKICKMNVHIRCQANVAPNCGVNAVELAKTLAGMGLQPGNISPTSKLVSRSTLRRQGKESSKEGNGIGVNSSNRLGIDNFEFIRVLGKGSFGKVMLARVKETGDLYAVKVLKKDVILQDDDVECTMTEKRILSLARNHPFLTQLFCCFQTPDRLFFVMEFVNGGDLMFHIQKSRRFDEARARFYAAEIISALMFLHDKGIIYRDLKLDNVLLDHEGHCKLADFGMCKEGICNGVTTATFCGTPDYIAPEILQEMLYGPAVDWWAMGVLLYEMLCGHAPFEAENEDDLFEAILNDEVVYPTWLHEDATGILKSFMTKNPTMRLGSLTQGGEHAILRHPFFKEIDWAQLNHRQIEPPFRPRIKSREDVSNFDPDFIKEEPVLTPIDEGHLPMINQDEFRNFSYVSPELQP
Chain of RPS6KA5 KD1 (human) (O75582 whole entry, looked up): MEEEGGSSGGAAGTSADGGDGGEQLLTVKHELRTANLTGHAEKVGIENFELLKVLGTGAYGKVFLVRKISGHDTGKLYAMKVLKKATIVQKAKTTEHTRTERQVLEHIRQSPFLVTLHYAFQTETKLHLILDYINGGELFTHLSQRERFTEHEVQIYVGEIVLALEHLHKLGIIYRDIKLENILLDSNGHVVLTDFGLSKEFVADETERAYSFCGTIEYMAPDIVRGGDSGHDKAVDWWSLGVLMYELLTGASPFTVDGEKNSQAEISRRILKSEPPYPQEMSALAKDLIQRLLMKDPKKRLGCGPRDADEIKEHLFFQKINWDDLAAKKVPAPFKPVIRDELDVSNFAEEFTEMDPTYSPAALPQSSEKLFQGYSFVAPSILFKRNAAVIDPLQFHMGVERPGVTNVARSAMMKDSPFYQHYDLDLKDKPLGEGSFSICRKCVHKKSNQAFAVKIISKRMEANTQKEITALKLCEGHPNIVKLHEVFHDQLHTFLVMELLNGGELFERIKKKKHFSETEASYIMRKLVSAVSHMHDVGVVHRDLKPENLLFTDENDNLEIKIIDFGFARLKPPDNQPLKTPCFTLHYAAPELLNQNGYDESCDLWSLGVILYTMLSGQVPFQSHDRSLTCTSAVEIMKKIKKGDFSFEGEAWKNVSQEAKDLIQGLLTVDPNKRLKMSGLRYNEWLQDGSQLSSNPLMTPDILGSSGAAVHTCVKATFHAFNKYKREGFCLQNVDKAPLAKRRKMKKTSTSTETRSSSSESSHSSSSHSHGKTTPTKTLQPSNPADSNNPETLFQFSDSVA
Chain of AURKB (human) (Q96GD4 whole entry, looked up): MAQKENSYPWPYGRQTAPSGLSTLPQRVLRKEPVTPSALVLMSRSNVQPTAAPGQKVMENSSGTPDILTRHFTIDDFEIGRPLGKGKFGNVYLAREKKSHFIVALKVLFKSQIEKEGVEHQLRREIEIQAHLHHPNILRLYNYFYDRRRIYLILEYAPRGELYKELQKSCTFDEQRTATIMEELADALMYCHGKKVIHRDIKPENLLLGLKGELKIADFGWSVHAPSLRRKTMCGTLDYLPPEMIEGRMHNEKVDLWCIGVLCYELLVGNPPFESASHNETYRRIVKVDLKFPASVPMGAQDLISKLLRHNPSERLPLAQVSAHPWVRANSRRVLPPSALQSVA
Chain of RPS6KA4 KD1 (human) (O75676 whole entry, looked up): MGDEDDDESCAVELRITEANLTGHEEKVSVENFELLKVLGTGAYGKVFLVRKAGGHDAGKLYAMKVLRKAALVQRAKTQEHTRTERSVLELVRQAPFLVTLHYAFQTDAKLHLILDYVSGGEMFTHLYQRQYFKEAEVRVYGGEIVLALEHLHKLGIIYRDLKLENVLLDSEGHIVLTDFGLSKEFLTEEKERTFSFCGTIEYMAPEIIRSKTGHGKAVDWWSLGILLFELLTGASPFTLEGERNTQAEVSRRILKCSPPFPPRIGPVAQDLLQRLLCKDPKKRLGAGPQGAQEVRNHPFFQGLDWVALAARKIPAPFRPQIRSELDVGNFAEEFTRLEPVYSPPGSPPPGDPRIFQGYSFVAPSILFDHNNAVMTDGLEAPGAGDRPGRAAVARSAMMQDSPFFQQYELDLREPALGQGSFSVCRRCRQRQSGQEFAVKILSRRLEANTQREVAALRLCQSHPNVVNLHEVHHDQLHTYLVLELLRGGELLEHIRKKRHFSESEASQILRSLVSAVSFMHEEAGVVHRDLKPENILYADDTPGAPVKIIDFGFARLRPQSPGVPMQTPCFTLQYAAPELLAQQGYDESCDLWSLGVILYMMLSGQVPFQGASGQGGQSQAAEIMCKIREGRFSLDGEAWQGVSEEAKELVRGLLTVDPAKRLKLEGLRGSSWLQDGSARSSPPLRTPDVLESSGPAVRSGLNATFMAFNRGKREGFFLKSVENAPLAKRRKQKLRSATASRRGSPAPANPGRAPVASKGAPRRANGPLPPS
Chain of AURKC (human) (Q9UQB9 whole entry, looked up): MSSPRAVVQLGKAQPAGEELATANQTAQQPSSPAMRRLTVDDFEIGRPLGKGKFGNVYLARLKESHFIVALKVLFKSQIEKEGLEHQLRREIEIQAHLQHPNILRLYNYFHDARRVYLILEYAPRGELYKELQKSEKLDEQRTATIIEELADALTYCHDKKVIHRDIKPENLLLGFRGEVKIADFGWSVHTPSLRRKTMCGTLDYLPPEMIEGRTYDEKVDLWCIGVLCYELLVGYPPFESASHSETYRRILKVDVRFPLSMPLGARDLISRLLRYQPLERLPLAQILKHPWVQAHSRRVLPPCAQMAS
Chain of RPS6KA2 KD1 (human) (Q15349 whole entry, looked up): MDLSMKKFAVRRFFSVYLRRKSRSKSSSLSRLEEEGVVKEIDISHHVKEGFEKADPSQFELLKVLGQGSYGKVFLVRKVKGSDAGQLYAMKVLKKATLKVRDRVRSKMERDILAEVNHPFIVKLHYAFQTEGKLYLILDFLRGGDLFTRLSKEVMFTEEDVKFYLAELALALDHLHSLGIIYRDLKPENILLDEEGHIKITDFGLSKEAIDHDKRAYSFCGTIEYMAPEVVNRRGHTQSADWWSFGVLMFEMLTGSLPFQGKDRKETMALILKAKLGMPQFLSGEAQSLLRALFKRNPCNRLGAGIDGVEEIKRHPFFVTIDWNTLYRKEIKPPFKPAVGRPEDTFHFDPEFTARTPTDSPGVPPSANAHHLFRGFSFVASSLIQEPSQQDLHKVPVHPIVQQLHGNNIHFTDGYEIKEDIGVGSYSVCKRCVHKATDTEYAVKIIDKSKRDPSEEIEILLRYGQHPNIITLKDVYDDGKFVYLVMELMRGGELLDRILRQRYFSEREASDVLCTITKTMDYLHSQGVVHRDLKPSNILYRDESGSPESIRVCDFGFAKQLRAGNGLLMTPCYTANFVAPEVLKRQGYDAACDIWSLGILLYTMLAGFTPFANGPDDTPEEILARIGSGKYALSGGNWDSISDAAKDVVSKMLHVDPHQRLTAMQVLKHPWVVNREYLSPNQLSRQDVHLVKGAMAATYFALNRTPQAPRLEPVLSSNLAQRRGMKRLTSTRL

| SMILES | inhibition [1] | inhibition [2] | inhibition [3] | inhibition [4] | inhibition [5] | inhibition [6] | inhibition [7] | inhibition [8] | inhibition [9] | inhibition [10] | inhibition [11] | inhibition [12] | inhibition [13] | inhibition [14] | inhibition [15] | inhibition [16] | inhibition [17] | inhibition [18] | inhibition [19] | inhibition [20] | also measured |
| --- | --- | --- | --- | --- | --- | --- | --- | --- | --- | --- | --- | --- | --- | --- | --- | --- | --- | --- | --- | --- | --- |
| CS(=O)c1ccc(-c2nc(-c3ccc(F)cc3)c(-c3ccncc3)[nH]2)cc1 (stereo unspecified) | 0% | 0% | 0% | 3% | 11% | 6% | 0% | 0% | 0% | 3% | 5% | 0% | 36% | 0% | 0% | 0% | 0% | 0% | 0% | 0% | inhibition [21]: 0%; inhibition [22]: 0%; inhibition [23]: 0%; inhibition [24]: 0%; inhibition [25]: 0%; inhibition [26]: 0%; inhibition [27]: 2% |
| CC(C)N(CCC(=O)c1ccc2ccccc2c1)Cc1ccccc1 | 0% | 0% | 0% | 0% | 0% | 0% | 0% | 0% | 0% | 1% | 0% | 0% | 0% | 1% | 0% | 0% | 0% | 2% | 0% | 0% | inhibition [21]: 0%; inhibition [22]: 0%; inhibition [23]: 0%; inhibition [24]: 0%; inhibition [25]: 0%; inhibition [26]: 0%; inhibition [27]: 0% |
| Cc1cc(I)ccc1Nc1c(C(=O)NOCC2CC2)cc(F)c(F)c1F | 0% | 0% | 0% | 0% | 0% | 0% | 0% | 0% | 0% | 0% | 0% | 0% | 0% | 0% | 0% | 2% | 4% | 0% | 12% | 20% | inhibition [21]: 6%; inhibition [22]: 9%; inhibition [23]: 1%; inhibition [24]: 0%; inhibition [25]: 6%; inhibition [26]: 0%; inhibition [27]: 0% |
| O=S(=O)(c1cccc2c(O)nccc12)N1CCCNCC1 | 0% | 0% | 6% | 0% | 0% | 0% | 0% | 0% | 0% | 0% | 0% | 0% | 0% | 19% | 5% | 0% | 14% | 0% | 0% | 0% | inhibition [21]: 0%; inhibition [22]: 0%; inhibition [23]: 15%; inhibition [24]: 37%; inhibition [25]: 53%; inhibition [26]: 0%; inhibition [27]: 0% |
| Cn1cnc2c(NCc3ccccc3)nc(NCCO)nc21 | 3% | 0% | 6% | 0% | 5% | 0% | 0% | 0% | 0% | 0% | 0% | 0% | 0% | 5% | 0% | 0% | 4% | 0% | 0% | 0% | inhibition [21]: 0%; inhibition [22]: 0%; inhibition [23]: 0%; inhibition [24]: 0%; inhibition [25]: 7%; inhibition [26]: 0%; inhibition [27]: 0% |

The next lines start with results.

| inhibition [1] | inhibition [2] | inhibition [3] | inhibition [4] | inhibition [5] | inhibition [6] | inhibition [7] | inhibition [8] | inhibition [9] | inhibition [10] | inhibition [11] | inhibition [12] | inhibition [13] | inhibition [14] | inhibition [15] | inhibition [16] | inhibition [17] | inhibition [18] | inhibition [19] | inhibition [20] | SMILES | also measured |
| --- | --- | --- | --- | --- | --- | --- | --- | --- | --- | --- | --- | --- | --- | --- | --- | --- | --- | --- | --- | --- | --- |
| 0% | 0% | 2% | 0% | 0% | 0% | 0% | 0% | 0% | 0% | 0% | 0% | 0% | 0% | 0% | 0% | 0% | 0% | 0% | 0% | C=CC(=O)c1ccc2ccccc2c1 | inhibition [21]: 0%; inhibition [22]: 0%; inhibition [23]: 0%; inhibition [24]: 0%; inhibition [25]: 0%; inhibition [26]: 0%; inhibition [27]: 0% |
| 0% | 0% | 0% | 0% | 0% | 0% | 0% | 0% | 0% | 2% | 0% | 0% | 16% | 2% | 0% | 0% | 1% | 0% | 1% | 0% | Cc1cc(F)c(Nc2ncnc3cc(OCc4ccccc4)ccc23)cc1O | inhibition [21]: 0%; inhibition [22]: 6%; inhibition [23]: 0%; inhibition [24]: 5%; inhibition [25]: 1%; inhibition [26]: 0%; inhibition [27]: 0% |
| 0% | 0% | 0% | 0% | 0% | 0% | 0% | 0% | 0% | 0% | 0% | 0% | 0% | 0% | 5% | 0% | 0% | 0% | 0% | 0% | O=c1cc(N2CCOCC2)nc2c3ccccc3ccn12 | inhibition [21]: 0%; inhibition [22]: 6%; inhibition [23]: 0%; inhibition [24]: 0%; inhibition [25]: 0%; inhibition [26]: 0%; inhibition [27]: 0% |
